Values after ≈ are worked out from the molar mass of the structure shown. Active and inactive are the calls of the source. The calls are words filed in the database; no cut-off is given here.
Tests used:
[1] = test system: Staphylococcus aureus; experiment: Inhibition of methicillin-resistant Staphylococcus aureus USA300 ClpP using Suc-LY-AMC as fluorescent substrate at 64 ug/ml preincubated for 1 hr followed by substrate addition and measured after 1 hr by FRET assay relative to control; settings: dose 64.0 µg/ml, time 2.0 hrs
[2] = Inhibition of methicillin-resistant Staphylococcus aureus USA300 ClpP using Suc-LY-AMC as fluorescent substrate preincubated for 1 hr followed by substrate addition and measured after 1 hr by FRET assay
[3] = test system: Staphylococcus aureus; experiment: Antibacterial activity against methicillin-resistant Staphylococcus aureus USA300 incubated for 24 hrs by microdilution broth assay; assay type: functional
[4] = test system: A549; experiment: Cytotoxicity against human A549 cells at 64 ug/ml by MTT assay; assay type: toxicity, cell-based; settings: dose 64 µg/ml
[5] = test system: HepG2; experiment: Cytotoxicity against human HepG2 cells at 64 ug/ml by MTT assay; assay type: toxicity, cell-based; settings: dose 64 µg/ml
[6] = test system: HEK-293T; experiment: Cytotoxicity against human HEK-293T cells at 64 ug/ml by MTT assay; assay type: toxicity, cell-based; settings: dose 64 µg/ml
[7] = test system: Staphylococcus aureus; experiment: Inhibition of hla gene transcription level in methicillin-resistant Staphylococcus aureus USA300 at 64 ug/ml by qPCR analysis; assay type: functional; settings: dose 64.0 µg/ml
[8] = test system: Staphylococcus aureus; experiment: Inhibition of agr gene transcription level in methicillin-resistant Staphylococcus aureus USA300 at 64 ug/ml by qPCR analysis; assay type: functional; settings: dose 64.0 µg/ml
[9] = test system: Staphylococcus aureus; experiment: Inhibition of RNAIII gene transcription level in methicillin-resistant Staphylococcus aureus USA300 at 64 ug/ml by qPCR analysis; assay type: functional; settings: dose 64.0 µg/ml
[10] = test system: Staphylococcus aureus; experiment: Inhibition of pvl gene transcription level in methicillin-resistant Staphylococcus aureus USA300 at 64 ug/ml by qPCR analysis; assay type: functional; settings: dose 64.0 µg/ml
[11] = test system: Staphylococcus aureus; experiment: Inhibition of PSM-alpha gene transcription level in methicillin-resistant Staphylococcus aureus USA300 at 64 ug/ml by qPCR analysis; assay type: functional; settings: dose 64.0 µg/ml
[12] = test system: Staphylococcus aureus; experiment: Inhibition of spa gene transcription level in methicillin-resistant Staphylococcus aureus USA300 at 64 ug/ml by qPCR analysis; assay type: functional; settings: dose 64.0 µg/ml
[13] = Inhibition of agrA gene transcription level in methicillin-resistant Staphylococcus aureus USA300 at 64 ug/ml by qPCR analysis; assay type: functional
[14] = test system: Staphylococcus aureus; experiment: Antibacterial activity against methicillin-resistant Staphylococcus aureus USA300 assessed as inhibition of bacteria-mediated hemolytic activity on rabbit erythrocytes at 128 ug/ml incubated for 30 mins by hemolysis assay; assay type: functional; settings: USA300, 0.5 h
[15] = test system: Staphylococcus aureus; experiment: Antibacterial activity against methicillin-resistant Staphylococcus aureus USA300 harboring ClpP delta mutant assessed as inhibition of bacteria-mediated hemolytic activity on rabbit erythrocytes at 128 ug/ml incubated for 30 mins by hemolysis assay; assay type: functional; settings: USA300, 0.5 h
[16] = test system: Staphylococcus aureus; experiment: Inhibition of PVL protein expression in methicillin-resistant Staphylococcus aureus USA300 incubated for overnight by western blot analysis; assay type: functional; settings: DDE = dose-dependent effect
[17] = test system: Staphylococcus aureus; experiment: Inhibition of PVL protein expression in methicillin-resistant Staphylococcus aureus Newman incubated for overnight by western blot analysis; assay type: functional; settings: DDE = dose-dependent effect
[18] = test system: Staphylococcus aureus; experiment: Binding affinity to methicillin-resistant Staphylococcus aureus USA300 ClpP assessed as decrease in thermal stability of the protein at 16 to 64 ug/ml by SYPRO orange thermal shift assay; settings: dose 16-64 µg/ml
[19] = test system: Staphylococcus aureus; experiment: Binding affinity to methicillin-resistant Staphylococcus aureus USA300 ClpP assessed as change in thermal stability by measuring protein deposition at 64 ug/ml by measured after 1 hr by cellular thermal shift assay (reference value: 65 degC); settings: dose 64.0 µg/ml
[20] = test system: Staphylococcus aureus; experiment: Binding affinity to methicillin-resistant Staphylococcus aureus USA300 ClpP assessed as association rate constant by surface plasmon resonance assay
[21] = test system: Staphylococcus aureus; experiment: Binding affinity to methicillin-resistant Staphylococcus aureus USA300 ClpP assessed as dissociation rate constant by surface plasmon resonance assay
[22] = Binding affinity to methicillin-resistant Staphylococcus aureus USA300 ClpP assessed as dissociation constant by surface plasmon resonance assay
[23] = test system: Staphylococcus aureus; experiment: Antibacterial activity against methicillin-resistant Staphylococcus aureus USA300 harboring delta ClpP mutant infected in C57BL/6J mouse pneumonia model assessed as reduction in mortality rate at 50 mg/Kg, sc administered every 12 hrs measured after 72 hrs (Rvb =80%); assay type: functional; parameters: scale not given: the % may be the effect or the level left
[24] = test system: Staphylococcus aureus; experiment: (§1) Antibacterial activity against methicillin-resistant Staphylococcus aureus USA300 infected in C57BL/6J mouse pneumonia model assessed as reduction in bacterial load in lung at 100 mg/Kg, sc administered every 12 hrs measured after 48 hrs in presence of cefotaxime (reference value: 10.04+/- 0.56 log10CFU/g); assay type: functional
[25] = test system: Staphylococcus aureus; experiment: (§2) Antibacterial activity against methicillin-resistant Staphylococcus aureus USA300 infected in C57BL/6J mouse pneumonia model assessed as reduction in infiltration of inflammatory cells in alveoli at 100 mg/Kg, sc administered every 12 hrs measured after 48 hrs by hematoxylin and eosin staining based histopathological analysis; assay type: functional, organism-based
[26] = test system: Staphylococcus aureus; experiment: as §2, with “USA300 harboring delta ClpP mutant” for “USA300”; assay type: functional, organism-based
[27] = test system: Staphylococcus aureus; experiment: Antibacterial activity against methicillin-resistant Staphylococcus aureus USA300 infected in C57BL/6J mouse pneumonia model assessed as reduction in IFN-gamma level in lung at 100 mg/Kg, sc administered every 12 hrs measured after 48 hrs by ELISA; assay type: functional, organism-based
[28] = test system: Staphylococcus aureus; experiment: Antibacterial activity against methicillin-resistant Staphylococcus aureus USA300 infected in C57BL/6J mouse pneumonia model assessed as reduction in IL-6 level in lung at 100 mg/Kg, sc administered every 12 hrs measured after 48 hrs by ELISA; assay type: functional, organism-based
[29] = test system: Staphylococcus aureus; experiment: Antibacterial activity against methicillin-resistant Staphylococcus aureus USA300 infected in C57BL/6J mouse pneumonia model assessed as reduction in TNF-alpha level in lung at 100 mg/Kg, sc administered every 12 hrs measured after 48 hrs by ELISA; assay type: functional, organism-based
[30] = test system: Staphylococcus aureus; experiment: Synergistic antibacterial activity against methicillin-resistant Staphylococcus aureus USA300 infected in C57BL/6J mouse pneumonia model assessed as lethality at 50 mg/Kg, sc administered every 12 hrs measured after 72 hrs in presence of cefotaxime (Rvb =40%); assay type: functional
[31] = test system: Staphylococcus aureus; experiment: as §1, with “Synergistic antibacterial” for “Antibacterial”, “7.72 +/- 0.50” for “10.04+/- 0.56”; assay type: functional
[32] = test system: Staphylococcus aureus; experiment: as §2, with “Synergistic antibacterial activity against” for “Antibacterial activity against”, “48 hrs in presence of cefotaxime by hematoxylin” for “48 hrs by hematoxylin”; assay type: functional, organism-based
[33] = test system: Staphylococcus aureus; experiment: Synergistic antibacterial activity against methicillin-resistant Staphylococcus aureus USA300 assessed as cefotaxime MIC by checker board method; assay type: functional
[34] = test system: Staphylococcus aureus; experiment: Synergistic […] activity against Cmethicillin-resistant Staphylococcus aureus USA300 assessed as fractional inhibitory concentration index at 64 ug/ml in presence of cefotaxime by checker board method; assay type: functional; settings: dose 64 µg/ml
[35] = test system: Staphylococcus aureus; experiment: Inhibition of methicillin-resistant Staphylococcus aureus USA300 ClpP assessed as upregulation of urease production at 64 ug/ml incubated for 4 hr by spectrophotometry; settings: dose 64.0 µg/ml

COc1ccc(-c2oc3cc(O)cc(O)c3c(=O)c2O)cc1O [TAMARIXETIN]
inhibition [1]: 2.5%
IC50 [2]: 49.7 µM
MIC [3]: 512 µg/mL (≈ 1620 µM)
Activity [4]: Non-Toxic
Activity [5]: Non-Toxic
Activity [6]: Non-Toxic
inhibition [7]: Active
inhibition [8]: Active
inhibition [9]: Active
inhibition [10]: Active
inhibition [11]: Active
inhibition [12]: Active
inhibition at 64 µg/mL [13]: 83.9%
inhibition at 128 µg/mL [14]: > 55%
inhibition at 128 µg/mL [15]: 85.8%
inhibition [16]: Dde
inhibition [17]: Dde
ΔTm [18]: > 2 °C
Activity [19]: Active
Ka [20]: 1.69 10^3/M/s
Kdiss [21]: 4.26 10^-3/s
Kd [22]: 2.52 µM
Activity [23]: 70%
Activity [24]: 7.03 log10CFU/g
Activity [25]: Active
Activity [26]: Active
Activity [27]: Active
Activity [28]: Active
Activity [29]: Active
Activity [30]: 20%
Activity [31]: 7.03 log10CFU/g
Activity [32]: Active
MIC [33]: 16 µg/mL
fractional inhibitory concentration index (FICI) [34]: 0.375
inhibition [35]: Active
